For data set [1] the following is noted: in vivo; cited from earlier work.
For data set [2] the following is noted: in vivo; cited from earlier work. This is another data set of the same source.
Data set [3] in a line: Oral bioavailability and brain penetrance of UCM765 and UCM924.
The nature of data set [4]: Stability of Prodrug D in solvents by HPLC. The class given is physicochemical. Conditions: HPLC Method 2. The protocol: For this test, we used HPLC with different solvent systems. […] Therefore, after initial assessment, this method was used for the remaining tests. Prodrug D or UCM924 (comparator) were dissolved in the different solvents listed in the table below and, after the waiting period indicated, HPLC tests were carried out according to the above. The results are shown in the table below, in which the percentages represent the quantity of prodrug D or UCM924 detected in the samples.

Data set [5] is described as follows: Pharmacokinetic study in male rats (UCM924 measured in plasma). Type of data set: in vivo. Particulars: Sprague-Dawley, rat, po, UCM924 plasmatic level, UCM924 20 mg/kg per os. As for the experimental part: In vivo pharmacokinetic studies of prodrug D were carried in male rats (Sprague-Dawley, weight 210-214 grams) and male dogs (Beagles, weight 8960-9820 grams). Animals were housed under standard conditions and had free access to water and standard laboratory diet. Care and husbandry of animals were in conformity with the institutional guidelines, in compliance with national and international laws and policies (EEC Council Directive 86/609, OJL 358m, 1, Dec. 122, 1987; NIH Guide for the care and Use of Laboratory Animals, NIH Publication No. 86-23, 1985). The compounds were dissolved in water containing 40% PEG 400 at a concentration of 15 mg/ml (clear solution) for the PO dose for Dog, or in water containing 40% PEG 400 at a concentration of 12.5 mg/ml (clear solution) for the PO dose for Rat. Rats were randomly assigned to treatment groups (n=3) and received a single oral administration (50 mg/kg) of Prodrug D and the level of the active metabolite UCM924 was then measured. Serial blood samples (200 uL) were collected from caudal vein at 5, 15, 30, 60, 120, 240, 360, 480 and 1440 min after PO administration. Blood samples were collected into a prechilled commercial tube (Jiangsu Kangjian medical supplies co., LTD) containing Potassium (K2) EDTA (0.85-1.15 mg). […] UCM924 (20 mg/kg) was also administered per os in rats and IV in dogs (2 mg/kg) and it was measured in plasma. […]

The nature of data set [6]: Pharmacokinetic study in male Beagle dogs (UCM924 measured in plasma). Type of data set: in vivo. Particulars: dog, UCM924 plasmatic level, UCM924 2 mg/kg IV. The protocol:
In vivo pharmacokinetic studies of prodrug D were carried in male rats (Sprague-Dawley, weight 210-214 grams) and male dogs (Beagles, weight 8960-9820 grams). Animals were housed under standard conditions and had free access to water and standard laboratory diet. Care and husbandry of animals were in conformity with the institutional guidelines, in compliance with national and international laws and policies (EEC Council Directive 86/609, OJL 358m, 1, Dec. 122, 1987; NIH Guide for the care and Use of Laboratory Animals, NIH Publication No. 86-23, 1985). The compounds were dissolved in water containing 40% PEG 400 at a concentration of 15 mg/ml (clear solution) for the PO dose for Dog, or in water containing 40% PEG 400 at a concentration of 12.5 mg/ml (clear solution) for the PO dose for Rat. Dogs were randomly assigned to treatment groups (n=3) and received a single oral administration (15 mg/kg) through oral gavage of Prodrug D and the level of the active metabolite UCM924 was then measured. Serial blood samples (200 uL) were collected from caudal vein at 5, 15, 30, 60, 120, 240, 360, 480 and 1440 min after PO administration. […] UCM924 (20 mg/kg) was also administered per os in rats and IV in dogs (2 mg/kg) and it was measured in plasma. […]

As to `CC(=O)NCCN(c1ccc(F)cc1)c1cccc(Br)c1` [UCM924, N-{2-[(3-bromophenyl)-(4-fluorophenyl)amino]ethyl}acetamide], in data set [1], the “antinociceptive properties in tests for chronic neuropathic pain” value was “potent antinociceptive properties”. For the same compound, the “motor impairments in the RotaRod test” value in data set [2] is reported as “did not produce any motor impairments”. Besides, the Kp in data set [3] (brain) is 2.5. The compound further showed a bioavailability in data set [3] (in vivo, po) of 6%. For the same compound, the “quantity detected in the sample by HPLC” value in data set [4] (1N HCl, overnight at rt, pH ~0) stood at 14.79%; in data set [4] (40% PEG400:60% H2O, overnight at rt, pH ~7.0), 40.16%; in data set [4] (H2O, overnight at rt, pH ~7.0) it was 80.09%; in data set [4] (Saturated NaHCO3aq, 2 h at rt, pH ~8.5), 62.33%. The values for the AUC(0-t) in data set [5] and in data set [6] were 97.7 ± 61 ng·h/mL and 1690 ± 275 ng·h/mL, respectively. The same compound showed a Cmax in data set [5] of 42 ± 34 ng/mL. In data set [6], this compound showed a half-life of 1.79 ± 0.4 h.

Source of the values: US20250339396A1 (COSMAS THERAPEUTICS DEVELOPMENT INC., priority 2021, published 2025).
